Assay results from patent US20200368371A1, “DYE-PROTEIN COMPLEX FOR NIR II AND PHOTOACOUSTIC IMAGING” (The Board of Trustees of the Leland Stanford Junior …, priority 2019, published 2020).

How the values were obtained:
[1] = Fluorescence intensity at different concentrations of IR-820 in deionized water and PBS; assay type: physicochemical
Method: IR-820 was first dissolved in deionized water, and then added to deionized water or PBS to determine the optimal concentration. […] 10 μM was determined as the concentration for other studies. […] Different HSA: IR-820 ratios were prepared while keeping IR-820 at a constant 10 μM to determine the approximate binding stoichiometry.

[2] = Absorbance spectra in deionized water; assay type: physicochemical; conditions: DI water
Source text: Absorbance spectra of IR-820 and complexes were taken on an ultraviolet-visible-NIR Cary 60 spectrometer (Agilent Technologies) with background correction.

C57BL/6 mice = experiment: In vivo NIR-II imaging of lymphatic system
Method: A gentle massage was performed on the injection site for faster diffusion into the lymphatic system.
Before imaging, all mice were anesthetized in a rodent anesthesia machine with 2 L/min O^2 gas mixed with 3% Soflurane. C57BL/6 mice were used for the vascular and lymphatic system NIR-II imaging. […] A gentle massage was performed at the injection site to increase the speed of diffusion into the lymphatic system. […] All groups within the study contained n=3 mice.
All NIR-II images were collected on a two-dimensional InGaAs array NIR-II system (Princeton Instruments). The excitation was provided by an 808 nm diode laser through an optical fiber and collimator. Fluorescence emission was collected with 1000 nm or more than 1000 nm long-pass filters (Thorlabs). A lens set was used to obtain tunable magnifications ranging from 1× (whole body) to 2.5× (high magnification) by changing the relative position of two NIR achromats (75 mm and 200 mm, Thorlabs). Image J software were used for analyzing the images.
The fluorescence measurement was performed to quantify NIR-II fluorescence signal intensity through the Image J software (National Institutes of Health, Bethesda, Md.). The line graphs and Gaussian-fitted FWHM were analysis by origin 8.5 (OriginLab Corporation, Northampton, Mass.).

[3] = all light conditions; cited from earlier work
[4] = prone position, subcutaneous footpad injection

## CC1(C)C(=CC=C2CCCC(C=CC3=[N+](CCCCS(=O)(=O)[O-])c4ccc5ccccc5c4C3(C)C)=C2Cl)N(CCCCS(=O)(=O)[O-])c2ccc3ccccc3c21.[Na+] [IR-820]
[1]
  behaviour in PBS: poor solubility or severe quenching
[2]
  absorbance strong peak: 690 nm
  absorbance weak shoulder: 815 nm
C57BL/6 mice; left side, subcutaneous injection
  identification of the inguinal lymph node: failed
C57BL/6 mice; [4]
  FWHM of lymphatic vessels: unmeasurable
  SBR of lymphatic vessels: 1.33
[3]
  stability in aqueous solution: greater stability than ICG
